{"source": "patent US9955689B2", "about": "“Method for promoting plant growth” (SUMITOMO CHEMICAL COMPANY, LIMITED, priority 2012, dated 2018)", "data": [{"tested_on": "Nicotiana benthamiana", "test": "Test Example 4: growth promotion under low-temperature stress by hydroponics of Nicotiana benthamiana (10 ppm)", "format": "in vivo", "conditions": "compound at 10 ppm, 7 days at 1.5±1.0° C. low-temperature stress, then 3 days at 22° C., 5 or greater = growth promotion effect, read-out: value of a relative leaf area (Equation (1), area of green leaf)", "protocol": "Test Example 4. Test for Evaluating Growth Promotion Under Low-Temperature Stress by Hydroponics of Nicotiana benthamiana\n(§1) (Cultivation and Compound Treatment)\n(§2) A DMSO solution, which contained one of the compounds 4, 5, 6, 8, 14, 17, 19, 22, 26, 45, 51, 53, 57, 59, 65, 69, 70, 75, 77, 79, 91, 97, 99, 101, and 110 of the present invention at a concentration of 10,000 ppm, was prepared. The DMSO solution of the compound of the present invention was added at a volume ratio of 1/1,000 to the Murashige⋅Scoog medium of a ½-fold concentration (a medium containing 2.3 g of mixed salts (manufactured by Wako Pure Chemical Industries, Ltd.), 200 mg of Myo-inositol (manufactured by Sigme-Aldrich Co. LLC.), 2 mg of niconitic acid (manufactured by Wako Pure Chemical Industries, Ltd.), 2 mg of pyridoxine hydrochloride (manufactured by Wako Pure Chemical Industries, Ltd.), 20 mg of thiamine hydrochloride (manufactured by Wako Pure Chemical Industries, Ltd.), 20 g of sucrose (manufactured by Wako Pure Chemical Industries, Ltd.), and 1 g of MES (manufactured by DOJINDO LABORATORIES) respectively per 1 L of water and having pH adjusted to 5.8), thereby preparing a medium containing the compound of the present invention at a concentration of 10 ppm.\n(§3) Seeds of Nicotiana benthamiana were seeded in the 5 of the medium and cultured overnight at 22° C. Thereafter, 45 μL of the medium containing the compound of the present invention at a concentration of 10 ppm was added thereto, and the seeds are cultured for 7 days at 22° C., under the conditions of an illuminance of 4,000 lux, and a day length of 16 hours, and the seedling raised from the Nicotiana benthamiana were treated with the compound. Moreover, instead of the above medium a test plot, which was obtained by performing the same treatment by using a medium prepared by adding DMSO to the Murashige⋅Scoog medium of ½-fold concentration at a volume ratio of 1/1,000, was used as a control plot not treated with the compound.\n(§4) (Low-Temperature Stress Treatment)\n(§5) The seedlings of the Nicotiana benthamiana treated with the compound were subjected to low-temperature treatment by being cultured for 7 days at 1.5±1.0° C., under the conditions of an illuminance of 2,000 lux, and a day length of 16 hours.\n(§6) The seedlings of the Nicotiana benthamiana having undergone the low-temperature stress treatment were cultured for 3 days at 22° C., an illuminance of 4,000 lux, and a day length of 16 hours. Thereafter, the area of green leaf was quantified by Scanalyzer HTS (manufactured by LemnaTec GmbH). Moreover, the value of the control plot not treated with the compound that had not yet been subjected to the low-temperature stress treatment was measured in the same manner. A value of a relative leaf area was calculated based on the following equation (1), and if the relative value of leafed area was 5 or greater, the compound was evaluated to have a growth promotion effect. As a result of the evaluation, it was confirmed that when the plant was treated with one of the compounds 4, 5, 6, 8, 14, 17, 19, 22, 26, 45, 51, 53, 57, 59, 65, 67, 69, 70, 75, 77, 79, 91, 97, 99, 101, and 110 of the present invention at 10 ppm, the value of a relative leaf area was 5 or greater, compared to the area of green leaf of the control plot not treated with compound. Accordingly, it was confirmed that the treatment using the compound of the present invention improve a growth promotion effect. Relative leaf area=100*(a green area of a plot treated with the compound of the present invention minus(−) a green area of a plot not treated with the compound of the present invention)/(a green area of a control plot not treated with the compound of the present invention that had not yet been subjected to low-temperature stress treatment minus(−) a green area of a control plot not treated with the compound of the present invention) Equation (1): […]", "units": {"relative green leaf area at 10 ppm": "%"}, "values": [{"smiles": "O=C(O)c1cc2cc(Cl)ccc2s1", "note": "[Present compound 6, 5-chlorobenzo[b]thiophene-2-carboxylic acid]", "relative green leaf area at 10 ppm": "≥ 5"}, {"smiles": "O=C(O)c1cc2c(I)cccc2s1", "note": "[Present compound 14]", "relative green leaf area at 10 ppm": "≥ 5"}, {"smiles": "O=C(O)c1cc2c([N+](=O)[O-])cccc2s1", "note": "[Present compound 17, 4-nitrobenzo[b]thiophene-2-carboxylic acid]", "relative green leaf area at 10 ppm": "≥ 5"}, {"smiles": "O=C(O)c1cc2ccc([N+](=O)[O-])cc2s1", "note": "[Present compound 19, 6-nitrobenzo[b]thiophene-2-carboxylic acid]", "relative green leaf area at 10 ppm": "≥ 5"}, {"smiles": "Cc1ccc2cc(C(=O)O)sc2c1", "note": "[Present compound 22]", "relative green leaf area at 10 ppm": "≥ 5"}, {"smiles": "O=C(O)c1sc2ccccc2c1C(F)(F)F", "note": "[Present compound 26, 3-(trifluoromethyl)benzo[b]thiophene-2-carboxylic acid]", "relative green leaf area at 10 ppm": "≥ 5"}, {"smiles": "O=C(O)c1cc2cc(-c3cccnc3)ccc2s1", "note": "[Present compound 45, 5-(3-pyridyl)benzo[b]thiophene-2-carboxylic acid]", "relative green leaf area at 10 ppm": "≥ 5"}, {"smiles": "O=C(O)c1ccc2sc(C(=O)O)cc2c1", "note": "[Present compound 53, benzo[b]thiophene-2,5-dicarboxylic acid]", "relative green leaf area at 10 ppm": "≥ 5"}, {"smiles": "O=C(c1ccccc1)c1ccc2sc(C(=O)O)cc2c1", "note": "[Present compound 57, 5-benzoylbenzo[b]thiophene-2-carboxylic acid]", "relative green leaf area at 10 ppm": "≥ 5"}, {"smiles": "NC(=O)c1ccc2sc(C(=O)O)cc2c1", "note": "[Present compound 59, 5-aminocarbonylbenzo[b]thiophene-2-carboxylic acid]", "relative green leaf area at 10 ppm": "≥ 5"}, {"smiles": "O=C(Nc1ccc2sc(C(=O)O)cc2c1)c1ccccc1", "note": "[Present compound 65, 5-(benzoylamino)benzo[b]thiophene-2-carboxylic acid]", "relative green leaf area at 10 ppm": "≥ 5"}, {"smiles": "CC(=O)Nc1c(C(=O)O)sc2ccccc12", "note": "[Present compound 69, 3-acetylamino-benzo[b]-thiophene-2-carboxylic acid]", "relative green leaf area at 10 ppm": "≥ 5"}, {"smiles": "O=C(O)c1cc2cc(NC(=O)C(F)(F)F)ccc2s1", "note": "[Present compound 70, 5-(trifluoroacetylamino)benzo[b]thiophene-2-carboxylic acid]", "relative green leaf area at 10 ppm": "≥ 5"}, {"smiles": "Cc1ccc(S(=O)(=O)Nc2ccc3sc(C(=O)O)cc3c2)cc1", "note": "[Present compound 75, 5-[(4-methylphenylsulfonyl)amino]benzo[b]thiophene-2-carboxylic acid]", "relative green leaf area at 10 ppm": "≥ 5"}, {"smiles": "O=C(O)c1cc2cc(O)ccc2s1", "note": "[Present compound 77]", "relative green leaf area at 10 ppm": "≥ 5"}, {"smiles": "O=C(O)c1cc2cccc(O)c2s1", "note": "[Present compound 79]", "relative green leaf area at 10 ppm": "≥ 5"}, {"smiles": "O=C(O)c1cc2ccc(OCc3ccc(C(F)(F)F)cc3)cc2s1", "note": "[Present compound 91, 6-(4-trifluoromethylbenzyloxy)benzo[b]thiophene-2-carboxylic acid]", "relative green leaf area at 10 ppm": "≥ 5"}, {"smiles": "CSc1ccc2sc(C(=O)O)cc2c1", "note": "[Present compound 97, 5-methylthiobenzo[b]thiophene-2-carboxylic acid]", "relative green leaf area at 10 ppm": "≥ 5"}, {"smiles": "O=C(O)c1cc2cc([S+]([O-])C(F)(F)F)ccc2s1", "note": "(stereo not drawn) [Present compound 99, 5-(trifluoromethylsulfinyl)benzo[b]thiophene-2-carboxylic acid]", "relative green leaf area at 10 ppm": "≥ 5"}, {"smiles": "O=C(O)c1cc2cc(S(F)(F)(F)(F)F)ccc2s1", "note": "[Present compound 101, 5-pentafluorosulfanylbenzo[b]thiophene-2-carboxylic acid]", "relative green leaf area at 10 ppm": "≥ 5"}, {"smiles": "CN(C)c1c(C(=O)O)sc2ccc(C(F)(F)F)cc12", "note": "[Present compound 110, 3-(N,N-dimethylamino)-5-trifluoromethylbenzo[b]thiophene-2-carboxylic acid]", "relative green leaf area at 10 ppm": "≥ 5"}]}, {"tested_on": "Nicotiana benthamiana", "test": "Test Example 6: growth promotion under low-temperature stress by hydroponics of Nicotiana benthamiana (0.1 ppm)", "format": "in vivo", "conditions": "compound at 0.1 ppm, 7 days at 1.5±1.0° C. low-temperature stress, then 3 days at 22° C., 5 or greater = growth promotion effect, read-out: value of a relative leaf area (Equation (1), area of green leaf)", "protocol": "Test Example 6. Test for Evaluating Growth Promotion Under Low-Temperature Stress by Hydroponics of Nicotiana benthamiana\nas §1\nas §2, with “2, 3, 7, 11 to 13, 20, 23, 24, 30, 38, 39, 41 to 43, 46, 50, 64, 68, 80, 82, 88, 93, 94, 96, 104, 107,” for “4, 5, 6, 8, 14, 17, 19, 22, 26, 45, 51, 53, 57, 59, 65, 69, 70, 75, 77, 79, 91, 97, 99, 101,”, “112” for “110”, “[…]” for “10,000”, “[…]” for “MES”, “0.1” for “10”\nas §3, with “the 5 μL of the” for “the 5 of the”, “concentration of 0.1 ppm was” for “concentration of 10 ppm was”, “at 22° C. under the” for “at 22° C., under the”, “and the seedlings raised from” for “and the seedling raised from”, “to the Murashige′Scoog medium of” for “to the Murashige⋅Scoog medium of”\nas §4, §5\nas §6, with “22° C., under the conditions of an illuminance” for “22° C., an illuminance”, “value of leaf area was” for “value of leafed area was”, “the compounds 2, 3, 7, 11 to 13, 20, 23, 24, 30, 38, 39, 41 to 43, 46, 50, 64, 68, 80, 82, 88, 93, 94, 96, 104, 107, and 112” for “the compounds 4, 5, 6, 8, 14, 17, 19, 22, 26, 45, 51, 53, 57, 59, 65, 67, 69, 70, 75, 77, 79, 91, 97, 99, 101, and 110”, “107, and 112 of the” for “101, and 110 of the”, “invention at 0.1 ppm, the” for “invention at 10 ppm, the”, “treatment minus(−) green area” for “treatment minus(−) a green area”", "units": {"relative green leaf area at 0.1 ppm": "%"}, "values": [{"smiles": "O=C(O)c1cc2cc(F)ccc2s1", "note": "[Present compound 2, 5-fluorobenzo[b]thiophene-2-carboxylic acid]", "relative green leaf area at 0.1 ppm": "≥ 5"}, {"smiles": "Cc1cccc2sc(C(=O)O)cc12", "note": "[Present compound 20, 4-methylbenzo[b]thiophene-2-carboxylic acid]", "relative green leaf area at 0.1 ppm": "≥ 5"}, {"smiles": "Cc1cccc2cc(C(=O)O)sc12", "note": "[Present compound 23, 7-methylbenzo[b]thiophene-2-carboxylic acid]", "relative green leaf area at 0.1 ppm": "≥ 5"}, {"smiles": "Cc1c(C(=O)O)sc2ccccc12", "note": "[Present compound 24, 3-methylbenzo[b]thiophene-2-carboxylic acid]", "relative green leaf area at 0.1 ppm": "≥ 5"}, {"smiles": "C=Cc1ccc2cc(C(=O)O)sc2c1", "note": "[Present compound 30, 6-vinylbenzo[b]thiophene-2-carboxylic acid]", "relative green leaf area at 0.1 ppm": "≥ 5"}, {"smiles": "O=C(O)c1cc2cc(-c3cccc(Cl)c3)ccc2s1", "note": "[Present compound 38, 5-(3-chlorophenyl)benzo[b]thiophene-2-carboxylic acid]", "relative green leaf area at 0.1 ppm": "≥ 5"}]}]}
